From the NIST ThermoML archive (doi:10.1021/acs.jced.8b01008)
± gives the expanded uncertainty stated by the source.

Conditions: 100 kPa, Liquid, Falling or rolling sphere viscometry

O [water]
Conditions | viscosity [mPa·s]
288.15 K | 1.122 ± 0.035
293.15 K | 0.99 ± 0.031
298.15 K | 0.882 ± 0.027
303.15 K | 0.793 ± 0.025
308.15 K | 0.719 ± 0.022
313.15 K | 0.656 ± 0.02
318.15 K | 0.602 ± 0.019
